Data as given in the NIST ThermoML archive (doi:10.1016/j.jct.2006.04.007).
Where “and” joins values, the source holds several entries; their conditions need not be identical. Equal entries are not always repeated.

Assay: mn = molality of the nth substance listed, in mol/kg
Settings: 350 kPa, Liquid; for apparent molar heat capacity: Extra sensitive DSC

CC(=O)N[C@@H](C=O)[C@@H](O)[C@H](O)[C@H](O)CO [N-acetyl-D-glucosamine] + O
Settings | apparent molar heat capacity | mass density
278.15 K, m1 = 0.0096 | 385 J/K/mol | –
278.15 K, m1 = 0.01 | – | 1000.31 kg/m3
278.15 K, m1 = 0.02 | – | 1001.78 kg/m3
278.15 K, m1 = 0.0207 | 377 J/K/mol | –
278.15 K, m1 = 0.03 | 365 J/K/mol and 358 J/K/mol | 1002.26 kg/m3 and 1001.98 kg/m3
278.15 K, m1 = 0.07 | 362 J/K/mol | 1005.5 kg/m3
278.15 K, m1 = 0.1502 | 348.5 J/K/mol | 1012.23 kg/m3
278.15 K, m1 = 0.1999 | 368.5 J/K/mol | 1014.67 kg/m3
278.15 K, m1 = 0.3018 | 373.1 J/K/mol | 1021.8 kg/m3
278.15 K, m1 = 0.5001 | 378.3 J/K/mol | 1035.28 kg/m3
278.15 K, m1 = 0.7003 | 380.2 J/K/mol | 1047.7 kg/m3
278.15 K, m1 = 0.958 | 358.2 J/K/mol | 1065.18 kg/m3
283.15 K, m1 = 0.0096 | 416 J/K/mol | –
283.15 K, m1 = 0.01 | – | 1000.13 kg/m3
283.15 K, m1 = 0.02 | – | 1001.42 kg/m3
283.15 K, m1 = 0.0207 | 403 J/K/mol | –
283.15 K, m1 = 0.03 | 385 J/K/mol and 387 J/K/mol | 1001.76 kg/m3 and 1002.02 kg/m3
283.15 K, m1 = 0.07 | 385 J/K/mol | 1005.11 kg/m3
283.15 K, m1 = 0.1502 | 374.5 J/K/mol | 1011.82 kg/m3
283.15 K, m1 = 0.1999 | 392.8 J/K/mol | 1014.24 kg/m3
283.15 K, m1 = 0.3018 | 396.5 J/K/mol | 1021.3 kg/m3
283.15 K, m1 = 0.5001 | 401.6 J/K/mol | 1034.59 kg/m3
283.15 K, m1 = 0.7003 | 403.8 J/K/mol | 1046.91 kg/m3
283.15 K, m1 = 0.958 | 381.8 J/K/mol | 1064.21 kg/m3
288.15 K, m1 = 0.0096 | 435 J/K/mol | –
288.15 K, m1 = 0.01 | – | 999.6 kg/m3
288.15 K, m1 = 0.02 | – | 1000.86 kg/m3
288.15 K, m1 = 0.0207 | 421 J/K/mol | –
288.15 K, m1 = 0.03 | 404 J/K/mol and 401 J/K/mol | 1001.23 kg/m3 and 1001.43 kg/m3
288.15 K, m1 = 0.07 | 405 J/K/mol | 1004.42 kg/m3
288.15 K, m1 = 0.1502 | 394.4 J/K/mol | 1011.1 kg/m3
288.15 K, m1 = 0.1999 | 411.9 J/K/mol | 1013.51 kg/m3
288.15 K, m1 = 0.3018 | 415.2 J/K/mol | 1020.51 kg/m3
288.15 K, m1 = 0.5001 | 420.1 J/K/mol | 1033.66 kg/m3
288.15 K, m1 = 0.7003 | 422 J/K/mol | 1045.87 kg/m3
288.15 K, m1 = 0.958 | 400.5 J/K/mol | 1063.03 kg/m3
293.15 K, m1 = 0.0096 | 450 J/K/mol | –
293.15 K, m1 = 0.0207 | 436 J/K/mol | –
293.15 K, m1 = 0.03 | 420 J/K/mol and 415 J/K/mol | –
293.15 K, m1 = 0.07 | 421 J/K/mol | –
293.15 K, m1 = 0.1502 | 411.4 J/K/mol | –
293.15 K, m1 = 0.1999 | 428.3 J/K/mol | –
293.15 K, m1 = 0.3018 | 431.3 J/K/mol | –
293.15 K, m1 = 0.5001 | 436 J/K/mol | –
293.15 K, m1 = 0.7003 | 437.9 J/K/mol | –
293.15 K, m1 = 0.958 | 416.6 J/K/mol | –
298.15 K, m1 = 0.0096 | 462 J/K/mol | –
298.15 K, m1 = 0.0207 | 449 J/K/mol | –
298.15 K, m1 = 0.03 | 433 J/K/mol and 432 J/K/mol | –
298.15 K, m1 = 0.07 | 437 J/K/mol | –
298.15 K, m1 = 0.1502 | 426.5 J/K/mol | –
298.15 K, m1 = 0.1999 | 442.5 J/K/mol | –
298.15 K, m1 = 0.3018 | 445.2 J/K/mol | –
298.15 K, m1 = 0.5001 | 449.8 J/K/mol | –
298.15 K, m1 = 0.7003 | 451.5 J/K/mol | –
298.15 K, m1 = 0.958 | 430.5 J/K/mol | –
303.15 K, m1 = 0.0096 | 474 J/K/mol | –
303.15 K, m1 = 0.0207 | 461 J/K/mol | –
303.15 K, m1 = 0.03 | 445 J/K/mol and 447 J/K/mol | –
303.15 K, m1 = 0.07 | 451 J/K/mol | –
303.15 K, m1 = 0.1502 | 440 J/K/mol | –
303.15 K, m1 = 0.1999 | 455 J/K/mol | –
303.15 K, m1 = 0.3018 | 457.8 J/K/mol | –
303.15 K, m1 = 0.5001 | 462.3 J/K/mol | –
303.15 K, m1 = 0.7003 | 463.7 J/K/mol | –
303.15 K, m1 = 0.958 | 443.2 J/K/mol | –
308.15 K, m1 = 0.0096 | 486 J/K/mol | –
308.15 K, m1 = 0.01 | – | 994.68 kg/m3
308.15 K, m1 = 0.02 | – | 995.7 kg/m3
308.15 K, m1 = 0.0207 | 472 J/K/mol | –
308.15 K, m1 = 0.03 | 456 J/K/mol and 459 J/K/mol | 996.2 kg/m3 and 996.26 kg/m3
308.15 K, m1 = 0.07 | 462 J/K/mol | 999.2 kg/m3
308.15 K, m1 = 0.1502 | 452.2 J/K/mol | 1005.72 kg/m3
308.15 K, m1 = 0.1999 | 466.4 J/K/mol | 1008.07 kg/m3
308.15 K, m1 = 0.3018 | 469.2 J/K/mol | 1014.85 kg/m3
308.15 K, m1 = 0.5001 | 473.5 J/K/mol | 1027.59 kg/m3
308.15 K, m1 = 0.7003 | 474.7 J/K/mol | 1039.58 kg/m3
308.15 K, m1 = 0.958 | 454.6 J/K/mol | 1056.31 kg/m3
313.15 K, m1 = 0.0096 | 496 J/K/mol | –
313.15 K, m1 = 0.0207 | 482 J/K/mol | –
313.15 K, m1 = 0.03 | 465 J/K/mol and 470 J/K/mol | –
313.15 K, m1 = 0.07 | 473.4 J/K/mol | –
313.15 K, m1 = 0.1502 | 463.3 J/K/mol | –
313.15 K, m1 = 0.1999 | 476.7 J/K/mol | –
313.15 K, m1 = 0.3018 | 479.6 J/K/mol | –
313.15 K, m1 = 0.5001 | 483.8 J/K/mol | –
313.15 K, m1 = 0.7003 | 484.8 J/K/mol | –
313.15 K, m1 = 0.958 | 465.2 J/K/mol | –
318.15 K, m1 = 0.0096 | 506 J/K/mol | –
318.15 K, m1 = 0.01 | – | 990.9 kg/m3
318.15 K, m1 = 0.02 | – | 991.84 kg/m3
318.15 K, m1 = 0.0207 | 491 J/K/mol | –
318.15 K, m1 = 0.03 | 474 J/K/mol and 479 J/K/mol | 992.39 kg/m3 and 992.41 kg/m3
318.15 K, m1 = 0.07 | 483.8 J/K/mol | 995.31 kg/m3
318.15 K, m1 = 0.1502 | 473.6 J/K/mol | 1001.76 kg/m3
318.15 K, m1 = 0.1999 | 486.3 J/K/mol | –
318.15 K, m1 = 0.3018 | 489.2 J/K/mol | –
318.15 K, m1 = 0.5001 | 493.4 J/K/mol | –
318.15 K, m1 = 0.7003 | 494.2 J/K/mol | –
318.15 K, m1 = 0.958 | 475 J/K/mol | –
